Results as given in ChEMBL document CHEMBL1201862, “PubChem BioAssay data set” (2004).
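Tested at 5 concentrations; 48 h exposure; 96-well plates; endpoints linearly interpolated, else capped at highest concentration. Abbreviation: GI50, concentration required for 50% inhibition of growth.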 Active and inactive are the calls of the source. Rule as the data show it: active = GI50 up to about 1.1 µM and inactive = higher.

Key:
Experiment in all cases: NCI-60 cell line screen, 48 h
ACHN = system: ACHN
EKVX = system: EKVX
HOP-92 = system: HOP-92
HT-29 = system: HT-29
K562 = system: K562
Malme-3M = system: Malme-3M
NCI-H460 = system: NCI-H460
NCI/ADR-RES = system: NCI/ADR-RES
OVCAR-5 = system: OVCAR-5
RXF 393 = system: RXF 393
SF-268 = system: SF-268
SF-295 = system: SF-295
SK-MEL-2 = system: SK-MEL-2
SK-OV-3 = system: SK-OV-3
SW-620 = system: SW-620
TK-10 = system: TK-10
U-251 = system: U-251
UACC-62 = system: UACC-62
PC-3 = system: PC-3

Measured: GI50

COc1cc(/C=C2/SC(c3ccccc3)N(c3cccc(Cl)c3)C2=O)cc(OC)c1OC (stereo not given)
inactive: ACHN 19.3 µM | EKVX 41.3 µM | HOP-92 23.6 µM | HT-29 25.6 µM | K562 13.5 µM | Malme-3M 24.6 µM | NCI-H460 32.1 µM | NCI/ADR-RES 17.1 µM | OVCAR-5 29.9 µM | RXF 393 15.9 µM | SF-268 21 µM | SF-295 8.22 µM | SK-MEL-2 59.3 µM | SK-OV-3 20.9 µM | SW-620 28.6 µM | TK-10 33.7 µM | U-251 27.6 µM | UACC-62 18.4 µM

CN1CN(c2ccccc2)C2(CCN(CCCCCCF)CC2)C1=O
inactive: ACHN 31.6 µM | EKVX 48.6 µM | HT-29 30.9 µM | K562 > 100 µM | Malme-3M > 100 µM | NCI/ADR-RES 16.4 µM | OVCAR-5 35 µM | PC-3 > 100 µM | RXF 393 > 100 µM | SF-268 94.8 µM | SF-295 82 µM | SK-OV-3 > 100 µM | SW-620 53.8 µM | TK-10 65.8 µM | U-251 97.1 µM | UACC-62 90.2 µM

CN(C)CCN1C(=O)c2ccccc2C1(O)c1ccc(Cl)cc1 (stereo not given)
inactive: ACHN > 100 µM | EKVX > 100 µM | HT-29 42.7 µM | K562 > 100 µM | Malme-3M 28.6 µM | NCI-H460 93.1 µM | NCI/ADR-RES 97.1 µM | OVCAR-5 > 100 µM | PC-3 50.1 µM | RXF 393 15.7 µM | SF-268 > 100 µM | SF-295 > 100 µM | SK-OV-3 > 100 µM | SW-620 > 100 µM | TK-10 > 100 µM | U-251 99.1 µM | UACC-62 32.7 µM

COc1cccc(-n2nnc3c(N)nc(N)nc32)c1
inactive: ACHN 53.7 µM | EKVX 12.3 µM | HOP-92 > 100 µM | HT-29 > 100 µM | K562 > 100 µM | Malme-3M > 100 µM | NCI-H460 94.4 µM | NCI/ADR-RES > 100 µM | OVCAR-5 > 100 µM | PC-3 > 100 µM | SF-268 5.96 µM | SF-295 > 100 µM | SK-MEL-2 > 100 µM | SK-OV-3 > 100 µM | SW-620 > 100 µM | TK-10 > 100 µM | U-251 > 100 µM | UACC-62 33.3 µM

CCC1(O)CC(CCN(Cc2ccccc2)C(=O)OCc2ccccc2)C(OCc2ccccc2)C1O (stereo not given)
inactive: ACHN 17 µM | EKVX 15.7 µM | HT-29 15.3 µM | K562 4.69 µM | NCI-H460 13.4 µM | NCI/ADR-RES 10.8 µM | OVCAR-5 17.7 µM | PC-3 10.7 µM | RXF 393 16.3 µM | SF-295 11.1 µM | SK-MEL-2 14.4 µM | SK-OV-3 17.4 µM | SW-620 36.1 µM | TK-10 16.5 µM | U-251 27.9 µM | UACC-62 12.9 µM

O=c1n(-c2ccccc2)c(=O)n2n1C1C=CC2CCCCCC1
inactive: ACHN > 100 µM | EKVX > 100 µM | HOP-92 > 100 µM | HT-29 > 100 µM | Malme-3M > 100 µM | NCI-H460 > 100 µM | NCI/ADR-RES > 100 µM | OVCAR-5 > 100 µM | PC-3 > 100 µM | SF-268 > 100 µM | SF-295 > 100 µM | SK-MEL-2 > 100 µM | SK-OV-3 > 100 µM | SW-620 > 100 µM | TK-10 > 100 µM | U-251 > 100 µM | UACC-62 > 100 µM

Nc1c(C(=O)c2ccccc2)nnc2ccccc12
inactive: ACHN 24.8 µM | EKVX 22.6 µM | HOP-92 18.8 µM | HT-29 25.8 µM | K562 30.8 µM | Malme-3M 27 µM | NCI-H460 24 µM | NCI/ADR-RES 21.5 µM | OVCAR-5 36.5 µM | PC-3 24.8 µM | SF-268 35.6 µM | SK-MEL-2 17.4 µM | SW-620 41.2 µM | TK-10 24.3 µM | U-251 34.5 µM | UACC-62 17.5 µM

Cc1cccc(NC(=O)/C=C/c2ccccc2)c1C
inactive: ACHN > 100 µM | EKVX > 100 µM | HT-29 > 100 µM | K562 > 100 µM | Malme-3M > 100 µM | NCI-H460 > 100 µM | OVCAR-5 > 100 µM | PC-3 > 100 µM | SF-268 > 100 µM | SF-295 > 100 µM | SK-MEL-2 > 100 µM | SK-OV-3 > 100 µM | SW-620 > 100 µM | TK-10 > 100 µM | U-251 > 100 µM | UACC-62 > 100 µM

C1CC[C@H]2SSC3CCCC[C@H]3SSC2C1 (stereo not given in full)
inactive: EKVX > 100 µM | HOP-92 > 100 µM | HT-29 > 100 µM | K562 > 100 µM | NCI-H460 > 100 µM | NCI/ADR-RES > 100 µM | OVCAR-5 > 100 µM | PC-3 > 100 µM | SF-268 > 100 µM | SF-295 > 100 µM | SK-OV-3 > 100 µM | SW-620 > 100 µM | TK-10 > 100 µM | U-251 > 100 µM | UACC-62 > 100 µM

O=C(c1cccc(OCc2ccccc2)c1OCc1ccccc1)N1CCSC1=S
inactive: ACHN 33.8 µM | EKVX 37.8 µM | HOP-92 18.1 µM | HT-29 25.2 µM | K562 9.35 µM | Malme-3M 23.6 µM | NCI-H460 28 µM | NCI/ADR-RES 10.6 µM | OVCAR-5 71.3 µM | PC-3 21 µM | SF-268 11.9 µM | SF-295 30 µM | SK-MEL-2 34.6 µM | SK-OV-3 30.1 µM | SW-620 43.4 µM | TK-10 56.5 µM | U-251 29.1 µM | UACC-62 19.2 µM

OC(c1nc2ccccc2s1)(C(F)(F)F)C(F)(F)F
inactive: ACHN > 100 µM | EKVX > 100 µM | HT-29 > 100 µM | K562 > 100 µM | Malme-3M > 100 µM | NCI-H460 > 100 µM | NCI/ADR-RES > 100 µM | OVCAR-5 > 100 µM | PC-3 > 100 µM | RXF 393 > 100 µM | SF-268 > 100 µM | SF-295 > 100 µM | SK-MEL-2 > 100 µM | SK-OV-3 > 100 µM | SW-620 > 100 µM | TK-10 > 100 µM | U-251 > 100 µM | UACC-62 > 100 µM

Cc1ccc(OCC2OC(C#N)C(Oc3ccc(C)cc3)C2Oc2ccc(C)cc2)cc1 (stereo not given)
inactive: EKVX > 100 µM | HT-29 > 100 µM | K562 > 100 µM | NCI-H460 > 100 µM | NCI/ADR-RES > 100 µM | OVCAR-5 > 100 µM | PC-3 > 100 µM | RXF 393 > 100 µM | SF-268 > 100 µM | SF-295 > 100 µM | SK-MEL-2 51.8 µM | SK-OV-3 > 100 µM | SW-620 > 100 µM | U-251 > 100 µM | UACC-62 > 100 µM
